Several values for one entry are separate records, joined by “and”; a condition that tells them apart may be missing. Equal entries are not always repeated. Where two headings read alike, the source gives them in different places.
What was measured:
PfCRT variant E75A = molecular target: T1, PfCRT variant E75A (Plasmodium falciparum, UniProt Q9N623, A220S/I356T/K76T/M74I/N326S/N75A/Q271E/R371I); assay: CQ uptake assay, oocytes expressing E75A; assay type: cell-based
T1 sequence (Q9N623 1-424 M74I/N75A/K76T/A220S/Q271E/N326S/I356T/R371I): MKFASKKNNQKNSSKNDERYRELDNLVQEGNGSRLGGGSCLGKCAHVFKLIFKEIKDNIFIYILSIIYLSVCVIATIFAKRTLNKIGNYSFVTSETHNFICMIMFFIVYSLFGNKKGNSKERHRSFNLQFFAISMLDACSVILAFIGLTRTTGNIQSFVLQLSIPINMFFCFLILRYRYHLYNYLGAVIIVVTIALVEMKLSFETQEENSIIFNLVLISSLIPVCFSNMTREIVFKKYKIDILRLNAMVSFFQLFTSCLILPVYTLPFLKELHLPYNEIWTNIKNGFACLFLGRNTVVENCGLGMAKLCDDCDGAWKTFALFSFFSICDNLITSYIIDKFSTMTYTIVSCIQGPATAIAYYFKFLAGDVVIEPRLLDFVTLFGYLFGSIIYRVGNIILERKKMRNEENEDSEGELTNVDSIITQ
Method: (§1) Site-directed mutagenesis of PfCRT^Dd2 was performed as described using the megaprimer method with overlap extension[21],[54]. The primer pairs used are listed in Supplementary Table 6. Please note that a codon-optimized and oocyte-adapted version of PfCRT^Dd2 was used[22] (Supplementary Fig. 16). The resulting DNA fragment was cloned into the SP64T expression vector and verified by sequencing.
(§2) Oocytes were obtained as described previously. Briefly, adult (>2 years old) female X. laevis frogs (NASCO) were anesthetized in a cooled solution of ethyl 3-amino benzoate methanesulfonate (0.1%, w/v), followed by a surgical removal of parts of the ovary. The ovary lobes were carefully dissected and small pieces of oocytes were incubated in Ca^2+-free ND96 buffer (96 mM NaCl, 2 mM KCl, 1 mM MgCl2 buffered with 5 mM HEPES/NaOH, pH 7.5) supplemented with collagenase D (0.1%, w/v; Roche), BSA (0.5%, w/v), and 9 mm Na2HPO4 at 18 °C for 14-16 h while gentle shaking. After incubation, the oocytes were carefully washed several times with ND96 buffer (96 mM NaCl, 2 mM KCl, 1.8 mM CaCl2, 1 mM MgCl2 buffered with 5 mM HEPES/NaOH, pH 7.5) supplemented with 100 mg l^−1 gentamycin). Defolliculated and healthy-looking stage V-VI oocytes were manually selected for RNA microinjection. The RNA was generated as following: The codon-optimized sequences of PfCRT variants were cloned into the pSP64T expression vector. After vector linearization using the restriction endonucleases BamHI or SalI (New England Biolabs), transcription was performed using the in vitro SP6 mMessage mMachine Kit (Ambion)[34]. The obtained RNA was kept at −80 °C and diluted with nuclease-free water to a concentration of 0.6 μg μl^−1. Precision-bore glass capillary tubes (3.5-inch glass capillaries; Drummond Scientific Co.) were pulled on a vertical puller (P-87 Flaming/Brown micropipette puller, Sutter Instrument Co.), graduated, and placed on a microinjector (Nanoject II Auto-Nanoliter Injector, Drummond Scientific Co.). 50 nl of nuclease-free water alone (control oocytes) or 50 nl of 0.6 μg μl^−1 RNA were injected under stereomicroscopic control. Injected oocytes were incubated for 46–72 h at 18 °C with twice-daily buffer changes before usage in experiments.
Drug uptake assays were performed as described previously[21],[22],[24],[34]. […] The direction of radio-labeled drug transport is here from the mostly acidic extracellular solution (pH 4.5 or 6.0, as indicated) into the oocyte cytosol (pH ∼ 7.2), which corresponds to the efflux of drug from the acidic digestive vacuole (pH 5.2) into the parasite cytoplasm (pH 7.2). The topology of PfCRT in the oolemma is such that both the N- and C-terminus face the extracellular milieu[3],[22]. In the parasite, the N- and C-terminus face the lumen of the digestive vacuole. […] For determination of the amount of drug uptake for each oocyte, the reaction medium was removed and the oocytes were washed three times with 2 ml of ice-cold ND96 buffer. Each oocyte was individually transferred to a scintillation vial containing 5% sodium dodecyl sulfate (200 μl) for lysis. […] Oocytes that were injected with water instead of RNA were analyzed in parallel, representing the uptake of a drug by diffusion and/or endogenous permeation pathways. […] The specific PfCRT-mediated uptake was determined by subtracting the corresponding background value measured in water-injected oocytes from that of PfCRT-expressing oocytes. […]

PfCRT variant E207H = assay: CQ uptake assay, oocytes expressing E207H; assay type: cell-based, Plasmodium falciparum; conditions: for Km: read-out: KM ± SEM
Method: as §1, §2
Drug uptake assays were performed as described previously[21],[22],[24],[34]. […] The direction of radio-labeled drug transport is here from the mostly acidic extracellular solution (pH 4.5 or 6.0, as indicated) into the oocyte cytosol (pH ∼ 7.2), which corresponds to the efflux of drug from the acidic digestive vacuole (pH 5.2) into the parasite cytoplasm (pH 7.2). The topology of PfCRT in the oolemma is such that both the N- and C-terminus face the extracellular milieu[3],[22]. In the parasite, the N- and C-terminus face the lumen of the digestive vacuole. […] For determination of the amount of drug uptake for each oocyte, the reaction medium was removed and the oocytes were washed three times with 2 ml of ice-cold ND96 buffer. Each oocyte was individually transferred to a scintillation vial containing 5% sodium dodecyl sulfate (200 μl) for lysis. […] Oocytes that were injected with water instead of RNA were analyzed in parallel, representing the uptake of a drug by diffusion and/or endogenous permeation pathways. The resulting value represents the “background“ level of drug accumulation in oocytes (in-depth discussion in[22]). The specific PfCRT-mediated uptake was determined by subtracting the corresponding background value measured in water-injected oocytes from that of PfCRT-expressing oocytes. In all cases, at least three separate experiments were performed on oocytes from different frogs (biological replicate), and for each condition in an experiment, measurements were made from 10 oocytes per treatment. For pH 5.5, 6.0, and 6.5, ND96 was buffered with 5 mM MES/Tris base.

[1] = E207H, 50 µM CQ, 1 h, mean ± SEM

Question: For CCN(CC)CCCC(C)Nc1ccnc2cc(Cl)ccc12 (centres unmarked) [CQ, chloroquine], which “Activity at pH 4.5” value (PfCRT variant E75A; E75A, 50 µM CQ, 1 h, mean ± SEM) is on record?
Answer: The value was 0.89 ± 0.11 pmol h-1 oocyte-1.

Question: And the R-value (PfCRT variant E75A; E75A, CQ transport at pH 4.5 / pH 6.0)?
Answer: The R-value was 0.51 ± 0.05.

Question: And the “E75A transport activity pH 4.5” value (PfCRT variant E75A; pH 4.5, single replicates, Fig 1d left)?
Answer: The value was 0.71 pmol oocyte-1 h-1 and 1.15 pmol oocyte-1 h-1 and 0.80 pmol oocyte-1 h-1.

Question: What about the “E75A R-value” (PfCRT variant E75A; pH 4.5 vs pH 6.0, Fig 1d left) of the same compound?
Answer: Its value is 0.40 and 0.62 and 0.50.

Question: And the “E75A transport activity pH 6.0” value (PfCRT variant E75A; pH 6.0, single replicates, Fig 1d left)?
Answer: Its value is 1.76 pmol oocyte-1 h-1 and 1.84 pmol oocyte-1 h-1 and 1.60 pmol oocyte-1 h-1.

Question: What about the E207H transport activity (PfCRT variant E207H; 10 μM CQ, pH 4.5) of the same compound?
Answer: Its E207H transport activity is 0.41 pmol oocyte-1 h-1 and 0.39 pmol oocyte-1 h-1 and 0.48 pmol oocyte-1 h-1.

Question: What about the E207H transport activity (PfCRT variant E207H; 10 μM CQ, pH 6.0) of the same compound?
Answer: Its E207H transport activity is 0.74 pmol oocyte-1 h-1 and 0.57 pmol oocyte-1 h-1 and 1.12 pmol oocyte-1 h-1 and 0.76 pmol oocyte-1 h-1.

Question: What about the E207H transport activity (PfCRT variant E207H; 50 μM CQ, pH 4.5) of the same compound?
Answer: Its E207H transport activity is 2.07 pmol oocyte-1 h-1 and 1.95 pmol oocyte-1 h-1 and 1.52 pmol oocyte-1 h-1.

Question: And the E207H transport activity (PfCRT variant E207H; 50 μM CQ, pH 6.0)?
Answer: Its E207H transport activity is 4.71 pmol oocyte-1 h-1 and 5.16 pmol oocyte-1 h-1 and 4.70 pmol oocyte-1 h-1 and 3.98 pmol oocyte-1 h-1.

Question: And the E207H transport activity (PfCRT variant E207H; 100 μM CQ, pH 4.5)?
Answer: The E207H transport activity was 4.26 pmol oocyte-1 h-1 and 4.32 pmol oocyte-1 h-1 and 4.33 pmol oocyte-1 h-1 and 5.17 pmol oocyte-1 h-1.

Question: And the E207H transport activity (PfCRT variant E207H; 100 μM CQ, pH 6.0)?
Answer: The E207H transport activity was 8.51 pmol oocyte-1 h-1 and 8.56 pmol oocyte-1 h-1 and 9.98 pmol oocyte-1 h-1 and 9.68 pmol oocyte-1 h-1.

Question: What about the E207H transport activity (PfCRT variant E207H; 200 μM CQ, pH 4.5) of the same compound?
Answer: The E207H transport activity was 6.09 pmol oocyte-1 h-1 and 7.31 pmol oocyte-1 h-1 and 7.21 pmol oocyte-1 h-1.

Question: And the E207H transport activity (PfCRT variant E207H; 200 μM CQ, pH 6.0)?
Answer: Its E207H transport activity is 12.59 pmol oocyte-1 h-1 and 12.95 pmol oocyte-1 h-1 and 14.47 pmol oocyte-1 h-1 and 12.58 pmol oocyte-1 h-1.

Question: What about the E207H transport activity (PfCRT variant E207H; 300 μM CQ, pH 4.5) of the same compound?
Answer: Its E207H transport activity is 7.95 pmol oocyte-1 h-1 and 7.89 pmol oocyte-1 h-1 and 7.92 pmol oocyte-1 h-1 and 8.79 pmol oocyte-1 h-1.

Question: And the E207H transport activity (PfCRT variant E207H; 300 μM CQ, pH 6.0)?
Answer: The E207H transport activity was 15.93 pmol oocyte-1 h-1 and 18.38 pmol oocyte-1 h-1 and 15.91 pmol oocyte-1 h-1 and 15.89 pmol oocyte-1 h-1.

Question: And the E207H transport activity (PfCRT variant E207H; 400 μM CQ, pH 4.5)?
Answer: The E207H transport activity was 8.22 pmol oocyte-1 h-1 and 9.32 pmol oocyte-1 h-1 and 10.99 pmol oocyte-1 h-1 and 9.19 pmol oocyte-1 h-1.

Question: What about the E207H transport activity (PfCRT variant E207H; 400 μM CQ, pH 6.0) of the same compound?
Answer: Its E207H transport activity is 18.75 pmol oocyte-1 h-1 and 17.55 pmol oocyte-1 h-1 and 18.62 pmol oocyte-1 h-1.

Question: What about the E207H transport activity (PfCRT variant E207H; 500 μM CQ, pH 4.5) of the same compound?
Answer: Its E207H transport activity is 8.40 pmol oocyte-1 h-1 and 9.28 pmol oocyte-1 h-1 and 9.33 pmol oocyte-1 h-1 and 9.38 pmol oocyte-1 h-1.

Question: What about the E207H transport activity (PfCRT variant E207H; 500 μM CQ, pH 6.0) of the same compound?
Answer: The E207H transport activity was 19.42 pmol oocyte-1 h-1 and 18.73 pmol oocyte-1 h-1 and 21.15 pmol oocyte-1 h-1 and 18.43 pmol oocyte-1 h-1.

Question: And the “E207H transport activity pH 4.5” value (PfCRT variant E207H; CQ uptake, oocytes expressing E207H, pH 4.5, individual replicates (Fig 6c))?
Answer: The value was 2.07 pmol oocyte-1 h-1 and 1.95 pmol oocyte-1 h-1 and 1.52 pmol oocyte-1 h-1.

Question: What about the “E207H transport activity pH 5.0” value (PfCRT variant E207H; CQ uptake, oocytes expressing E207H, pH 5.0, individual replicates (Fig 6c)) of the same compound?
Answer: Its value is 2.16 pmol oocyte-1 h-1 and 3.19 pmol oocyte-1 h-1 and 2.08 pmol oocyte-1 h-1 and 1.56 pmol oocyte-1 h-1.

Question: What about the “E207H transport activity pH 5.5” value (PfCRT variant E207H; CQ uptake, oocytes expressing E207H, pH 5.5, individual replicates (Fig 6c)) of the same compound?
Answer: Its value is 2.52 pmol oocyte-1 h-1 and 2.31 pmol oocyte-1 h-1 and 4.16 pmol oocyte-1 h-1 and 3.55 pmol oocyte-1 h-1.

Question: And the “E207H transport activity pH 6.0” value (PfCRT variant E207H; CQ uptake, oocytes expressing E207H, pH 6.0, individual replicates (Fig 6c))?
Answer: The value was 4.71 pmol oocyte-1 h-1 and 5.16 pmol oocyte-1 h-1 and 4.70 pmol oocyte-1 h-1 and 3.98 pmol oocyte-1 h-1.

Question: And the “E207H transport activity pH 6.5” value (PfCRT variant E207H; CQ uptake, oocytes expressing E207H, pH 6.5, individual replicates (Fig 6c))?
Answer: Its value is 3.76 pmol oocyte-1 h-1 and 4.49 pmol oocyte-1 h-1 and 4.51 pmol oocyte-1 h-1 and 2.60 pmol oocyte-1 h-1.

Question: What about the “E207H transport activity pH 7.0” value (PfCRT variant E207H; CQ uptake, oocytes expressing E207H, pH 7.0, individual replicates (Fig 6c)) of the same compound?
Answer: Its value is 2.49 pmol oocyte-1 h-1 and 3.47 pmol oocyte-1 h-1 and 3.41 pmol oocyte-1 h-1 and 2.67 pmol oocyte-1 h-1.

Question: What about the “Vmax ± SEM” value (PfCRT variant E207H; E207H, pH 4.5) of the same compound?
Answer: Its value is 13 ± 1 pmol h^−1 oocyte ^−1.

Question: And the Km (PfCRT variant E207H; E207H, pH 4.5)?
Answer: The Km was 230 ± 35 µM.

Question: And the “Vmax ± SEM” value (PfCRT variant E207H; E207H, pH 6.0)?
Answer: The value was 29 ± 1 pmol h^−1 oocyte ^−1.

Question: What about the Km (PfCRT variant E207H; E207H, pH 6.0) of the same compound?
Answer: Its Km is 230 ± 20 µM.

Question: And the “Activity at pH 4.5” value (PfCRT variant E207H; [1])?
Answer: The value was 1.99 ± 0.16 pmol h-1 oocyte-1.

Question: And the “Activity at pH 6.0” value (PfCRT variant E207H; [1])?
Answer: The value was 4.64 ± 0.21 pmol h-1 oocyte-1.

Question: And the R-value (PfCRT variant E207H; E207H, CQ transport at pH 4.5 / pH 6.0)?
Answer: The R-value was 0.43 ± 0.03.

Question: And the “E207H transport activity pH 4.5” value (PfCRT variant E207H; pH 4.5, individual replicates, Fig 6b)?
Answer: The value was 2.07 pmol oocyte-1 h-1 and 1.95 pmol oocyte-1 h-1 and 1.52 pmol oocyte-1 h-1.

Question: What about the “E207H transport activity pH 6.0” value (PfCRT variant E207H; pH 6.0, individual replicates, Fig 6b) of the same compound?
Answer: The value was 4.71 pmol oocyte-1 h-1 and 5.16 pmol oocyte-1 h-1 and 4.70 pmol oocyte-1 h-1 and 3.98 pmol oocyte-1 h-1.

Question: What about the “E207H R-value” (PfCRT variant E207H; ratio of activity pH 4.5 / pH 6.0) of the same compound?
Answer: Its value is 0.51 and 0.40 and 0.41 and 0.38.
